system: Aβ42; test: In vitro cell screening assay in H4 cells expressing human APP751: Aβ42 by sandwich ELISA; format: cell-based; settings: Homo sapiens, compounds 0.003-10 μM, incubated overnight (16-18 h), sandwich ELISA of supernatant
Outline: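 Secreted Aβ42 measured by sandwich ELISA, C-terminal-specific capture and 4G8-HRP detection, TMB read at 450 nm, from supernatants of APP751-expressing H4 cells exposed overnight (16-18 h) to 0.003-10 μM compound in Pro293 medium, 0.33% DMSO. Data scaled between DMSO and DAPT controls; EC50 from variable-slope nonlinear regression.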

EC50 [nM] | SMILES
> 3000 | COc1nc(C2=NOCC(C3CCS(=O)(=O)CC3)N2)ccc1-n1cnc(C)c1 (single isomer, unassigned; (+)) [Example 177A, (+)-4-(3-(6-methoxy-5-(4-methyl-1H-imidazol-1-yl)pyridin-2-yl)-5,6-dihydro-4H-1,2,4-oxadiazin-5-yl) tetrahydro-2H-thiopyran 1,1-dioxide]
28.8 | COc1nc(C2=NOCC(c3cn(C)c4cccc(Cl)c34)N2)ccc1-n1cnc(C)c1 (single isomer, unassigned; (+)) [Example 229A, (+)-5-(4-chloro-1-methyl-1H-indol-3-yl)-3-(6-methoxy-5-(4-methyl-1H-imidazol-1-yl)pyridin-2-yl)-5,6-dihydro-4H-1,2,4-oxadiazine]

same assay, conditions: compounds 0.003-10 μM, incubated overnight (16-18 h), sandwich ELISA of supernatant

SMILES | EC50 [nM]
COc1nc(C2=NOCC(c3csc4ccccc34)N2)ccc1-n1cnc(C)c1 (single isomer, unassigned; (-)) [Example 68A, (−)-5-(benzo [b]thiophen-3-yl)-3-(6-methoxy-5-(4-methyl-1H-imidazol-1-yl)pyridin-2-yl)-5,6-dihydro-4H-1,2,4-oxadiazine] | 1090
COc1nc(C2=NOCC(c3c[nH]c4ccccc34)N2)ccc1-n1cnc(C)c1 (single isomer, unassigned) [Example 47A, 5-(1H-indol-3-yl)-3-(6-methoxy-5-(4-methyl-1H-imidazol-1-yl)pyridin-2-yl)-5,6-dihydro-4H-1,2,4-oxadiazine] | 136
COc1nc(C2=NOCC(c3cn(C)c4ccc(C#N)cc34)N2)ccc1-n1cnc(C)c1 (single isomer, unassigned; (-)) [Example 245A, (−)-3-(3-(6-methoxy-5-(4-methyl-1H-imidazol-1-yl)pyridin-2-yl)-5,6-dihydro-4H-1,2,4-oxadiazin-5-yl)-1-methyl-1H-indole-5-carbonitrile] | 554
COc1nc(C2=NOCC(c3cc4cc(Cl)ccc4o3)N2)ccc1-n1cnc(C)c1 (single isomer, unassigned; (-)) [Example 57A, (−)-5-(5-chlorobenzofuran-2-yl)-3-(6-methoxy-5-(4-methyl-1H-imidazol-1-yl)pyridin-2-yl)-5,6-dihydro-4H-1,2,4-oxadiazine] | 2280
COc1nc(C2=NOCC(c3ccc4ncccc4c3)N2)ccc1-n1cnc(C)c1 (single isomer, unassigned; (-)) [Example 224A, (−)-3-(6-methoxy-5-(4-methyl-1H-imidazol-1-yl)pyridin-2-yl)-5-(quinolin-6-yl)-5,6-dihydro-4H-1,2,4-oxadiazine] | > 3000
COc1ccc2c(C3CON=C(c4ccc(-n5cnc(C)c5)c(OC)n4)N3)cn(C)c2c1 (single isomer, unassigned; (-)) [Example 258A, (−)-5-(6-methoxy-1-methyl-1H-indol-3-yl)-3-(6-methoxy-5-(4-methyl-1H-imidazol-1-yl)pyridin-2-yl)-5,6-dihydro-4H-1,2,4-oxadiazine] | 154
COc1nc(C2=NOCC(c3cc4ccccc4o3)N2)ccc1-n1cnc(C)n1 (single isomer, unassigned; (+)) [Example 31B, (+)-5-(Benzofuran-2-yl)-3-(6-methoxy-5-(3-methyl-1H-1,2,4-triazol-1-yl)pyridin-2-yl)-5,6-dihydro-4H-1,2,4-oxadiazine] | 636
COc1nc(C2=NOCC(c3cn(C)c4cccc(F)c34)N2)ccc1-n1cnc(C)c1 (single isomer, unassigned; (-)) [Example 191B, (−)-5-(4-fluoro-1-methyl-1H-indol-3-yl)-3-(6-methoxy-5-(4-methyl-1H-imidazol-1-yl)pyridin-2-yl)-5,6-dihydro-4H-1,2,4-oxadiazine] | 83.2
COc1nc(C2=NOCC(c3ccc(Cl)c(C(F)(F)F)c3)N2)ccc1-n1cnc(C)c1 (single isomer, unassigned) [Example 253B, 5-(4-chloro-3-(trifluoromethyl)phenyl)-3-(6-methoxy-5-(4-methyl-1H-imidazol-1-yl)pyridin-2-yl)-5,6-dihydro-4H-1,2,4-oxadiazine] | 8.4
COc1ccc(C2CON=C(c3ccc(-n4cnc(C)c4)c(OC)n3)N2)cc1 (single isomer, unassigned; (+)) [Example 54B, (+)-3-(6-methoxy-5-(4-methyl-1H-imidazol-1-yl)pyridin-2-yl)-5-(4-methoxyphenyl)-5,6-dihydro-4H-1,2,4-oxadiazine] | 97.4
COc1nc(C2=NOCC(c3cn(C)c4cc(C(F)(F)F)ccc34)N2)ccc1-n1cnc(C)c1 (single isomer, unassigned; (-)) [Example 197B, (−)-3-(6-methoxy-5-(4-methyl-1H-imidazol-1-yl)pyridin-2-yl)-5-(1-methyl-6-(trifluoromethyl)-1H-indol-3-yl)-5,6-dihydro-4H-1,2,4-oxadiazine] | 90.5
COc1nc(C2=NOCC(c3cn(C)c4cc(F)ccc34)N2)ccc1-n1cnc(C)c1 (single isomer, unassigned; (+)) [Example 192B, (+)-5-(6-fluoro-1-methyl-1H-indol-3-yl)-3-(6-methoxy-5-(4-methyl-1H-imidazol-1-yl)pyridin-2-yl)-5,6-dihydro-4H-1,2,4-oxadiazine] | 8.5
COc1nc(C2=NOCC(c3cccc(C(F)(F)F)c3)N2C)ccc1-n1cnc(C)c1 (stereo not drawn) [Example 30B, 3-(6-methoxy-5-(4-methyl-1H-imidazol-1-yl)pyridin-2-yl)-4-methyl-5-(3-(trifluoromethyl)phenyl)-5,6-dihydro-4H-1,2,4-oxadiazine] | > 3000
COc1nc(C2=NOCC(c3cn(C)c4ncccc34)N2)ccc1-n1cnc(C)c1 (single isomer, unassigned; (-)) [Example 195A, (−)-3-(6-methoxy-5-(4-methyl-1H-imidazol-1-yl)pyridin-2-yl)-5-(1-methyl-1H-pyrrolo [2,3-b]pyridin-3-yl)-5,6-dihydro-4H-1,2,4-oxadiazine] | 2110
COc1nc(C2=NOCC(c3cn(C)c4cc(F)c(F)cc34)N2)ccc1-n1cnc(C)c1 (single isomer, unassigned; (+)) [Example 223B, (+)-5-(5,6-difluoro-1-methyl-1H-indol-3-yl)-3-(6-methoxy-5-(4-methyl-1H-imidazol-1-yl)pyridin-2-yl)-5,6-dihydro-4H-1,2,4-oxadiazine] | 6.2
COc1nc(C2=NOCC(c3cn(C)c4cc(F)ccc34)N2)ccc1-n1cnc(C)c1 (single isomer, unassigned; (-)) [Example 192A, (−)-5-(6-fluoro-1-methyl-1H-indol-3-yl)-3-(6-methoxy-5-(4-methyl-1H-imidazol-1-yl)pyridin-2-yl)-5,6-dihydro-4H-1,2,4-oxadiazine] | 170
COc1nc(C2=NOCC(c3oc4ccc(F)cc4c3C)N2)ccc1-n1cnc(C)c1 (single isomer, unassigned; (-)) [Example 101A, (−)-5-(5-fluoro-3-methylbenzofuran-2-yl)-3-(6-methoxy-5-(4-methyl-1H-imidazol-1-yl)pyridin-2-yl)-5,6-dihydro-4H-1,2,4-oxadiazine] | 1570

Other lines, results leading:

EC50 [nM] | SMILES
28.3 | COc1nc(C2=NOCC(c3ccc(Cl)cc3)N2)ccc1-n1cnc(C)c1 (single isomer, unassigned) [Example 42B, 5-(4-chlorophenyl)-3-(6-methoxy-5-(4-methyl-1H-imidazol-1-yl)pyridin-2-yl)-5,6-dihydro-4H-1,2,4-oxadiazine]
> 3000 | COc1nc(C2=NOCC(c3cscn3)N2)ccc1-n1cnc(C)c1 (single isomer, unassigned; (-)) [Example 156B, (−)-3-(6-methoxy-5-(4-methyl-1H-imidazol-1-yl)pyridin-2-yl)-5-(thiazol-4-yl)-5,6-dihydro-4H-1,2,4-oxadiazine]
14.1 | COc1nc(C2=NOCC(c3ccc(C)c(Cl)c3)N2)ccc1-n1cnc(C)c1 (single isomer, unassigned; (+)) [Example 218B, (+)-5-(3-chloro-4-methylphenyl)-3-(6-methoxy-5-(4-methyl-1H-imidazol-1-yl)pyridin-2-yl)-5,6-dihydro-4H-1,2,4-oxadiazine]
2.9 | COc1nc(C2=NOCC(c3cn(C)c4ccc(C5CC5)cc34)N2)ccc1-n1cnc(C)c1 (single isomer, unassigned; (+)) [Example 221B, (+)-5-(5-cyclopropyl-1-methyl-1H-indol-3-yl)-3-(6-methoxy-5-(4-methyl-1H-imidazol-1-yl)pyridin-2-yl)-5,6-dihydro-4H-1,2,4-oxadiazine]
> 3000 | COc1nc(C2=NOCC(c3ccccn3)N2)ccc1-n1cnc(C)c1 (single isomer, unassigned; (-)) [Example 168B, (−)-3-(6-methoxy-5-(4-methyl-1H-imidazol-1-yl)pyridin-2-yl)-5-(pyridin-2-yl)-5,6-dihydro-4H-1,2,4-oxadiazine]
920 | COc1nc(C2=NOCC(c3ccc(Cl)c(C4CC4)c3)N2)ccc1-n1cnc(C)c1 (single isomer, unassigned; (-)) [Example 239A, (−)-5-(4-chloro-3-cyclopropylphenyl)-3-(6-methoxy-5-(4-methyl-1H-imidazol-1-yl)pyridin-2-yl)-5,6-dihydro-4H-1,2,4-oxadiazine]
38.8 | COc1nc(C2=NOCC(c3ccc(C4CC4)cc3)N2)ccc1-n1cnc(C)c1 (single isomer, unassigned; (+)) [Example 116B, (+)-5-(4-cyclopropylphenyl)-3-(6-methoxy-5-(4-methyl-1H-imidazol-1-yl)pyridin-2-yl)-5,6-dihydro-4H-1,2,4-oxadiazine]
397 | COc1nc(C2=NOCC(c3cc4ccc(C5CC5)cc4o3)N2)ccc1-n1cnc(C)c1 (single isomer, unassigned; (-)) [Example 236A, (−)-5-(6-cyclopropylbenzofuran-2-yl)-3-(6-methoxy-5-(4-methyl-1H-imidazol-1-yl)pyridin-2-yl)-5,6-dihydro-4H-1,2,4-oxadiazine]

Reference: patent US9802927B2, “Oxadiazine compounds and methods of use thereof” (Denali Therapeutics, Inc., priority 2015, dated 2017)
